Laboratory results from patent publication US20050228007A1, “Isoquinoline derivatives and methods of use thereof” (priority 2004, published 2005).
Structures can show the parent of a compound that is named as a salt. Where two headings read alike, the source gives them in different places.

Assays:
[1] = test system: streptozotocin (STZ) induced hyperglycemia; test: Single high-dose streptozotocin model of diabetes; assay type: in vivo, mice; settings: 3 mg/kg i.p.; STZ 160 mg/kg; blood sugar 3 days later; STZ + vehicle 320 ± 13, basal 153 ± 21; 8l as mesylate salt
Protocol: PARS inhibitors and PARS deficiency are known to reduce the development of diabetes and the incidence of diabetic complications (Mabley et al., Br J. Pharmacol. 2001, 133(6):909-9; and Soriano et al., Nat Med. 2001, 7(1):108-13). […] Briefly, 160 mg/kg streptozotocin was injected to mice treated with vehicle or with illustrative Isoquinoline Derivatives intraperitoneally (3 mg/kg) and 3 days later blood sugar levels were determined using a blood glucose meter.

thymocytes = settings: peroxynitrite induced, control 98%
Text: In addition in vitro studies in isolated thymocytes, cells were exposed to peroxynitrite or hydrogen peroxide (toxic oxidant species) to induce cytotoxicity.

TNF-alpha = test: LPS induced TNF production in mice; assay type: in vivo; set-up: unit not given here; settings: LPS 10 mg/kg i.p., plasma at 90 minutes, vehicle 6994.0 ± 904.4, 8l as mesylate salt
PARS = molecular target: T1, PARS (Mus musculus, UniProt P11103); test: PARS activation in peroxynitrite-treated cultured macrophages (whole-cell 3H-NAD+ assay); assay type: cell-based; settings: cultured murine macrophages
T1 construct: endogenous in cells; host or cells: RAW mouse macrophages
T1 sequence (P11103 whole entry): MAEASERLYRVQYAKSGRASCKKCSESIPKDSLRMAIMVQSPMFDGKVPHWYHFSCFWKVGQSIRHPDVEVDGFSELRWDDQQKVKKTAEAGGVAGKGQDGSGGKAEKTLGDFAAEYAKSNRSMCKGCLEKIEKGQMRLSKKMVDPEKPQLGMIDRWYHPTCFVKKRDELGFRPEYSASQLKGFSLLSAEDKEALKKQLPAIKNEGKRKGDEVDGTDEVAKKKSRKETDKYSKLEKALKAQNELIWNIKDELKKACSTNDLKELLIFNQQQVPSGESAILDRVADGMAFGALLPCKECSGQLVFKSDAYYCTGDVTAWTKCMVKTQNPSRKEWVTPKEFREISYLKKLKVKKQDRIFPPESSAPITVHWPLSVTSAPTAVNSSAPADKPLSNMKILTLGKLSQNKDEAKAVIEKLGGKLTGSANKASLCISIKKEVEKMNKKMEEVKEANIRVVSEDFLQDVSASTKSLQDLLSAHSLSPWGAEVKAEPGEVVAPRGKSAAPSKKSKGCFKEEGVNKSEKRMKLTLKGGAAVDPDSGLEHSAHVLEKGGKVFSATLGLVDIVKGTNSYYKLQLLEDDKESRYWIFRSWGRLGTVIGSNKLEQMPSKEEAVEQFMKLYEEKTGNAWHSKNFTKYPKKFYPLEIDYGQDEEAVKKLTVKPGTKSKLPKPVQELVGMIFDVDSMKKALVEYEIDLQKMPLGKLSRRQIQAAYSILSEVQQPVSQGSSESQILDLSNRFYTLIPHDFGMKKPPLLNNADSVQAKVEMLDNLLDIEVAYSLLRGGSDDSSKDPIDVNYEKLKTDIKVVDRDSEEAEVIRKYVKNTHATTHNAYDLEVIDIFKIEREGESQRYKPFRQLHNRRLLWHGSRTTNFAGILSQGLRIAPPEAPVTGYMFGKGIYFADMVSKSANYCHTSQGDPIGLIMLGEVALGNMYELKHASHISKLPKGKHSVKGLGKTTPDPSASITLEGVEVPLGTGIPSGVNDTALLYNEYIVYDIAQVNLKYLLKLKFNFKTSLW
Protocol: Raw mouse macrophages were cultured in DMEM medium with high glucose and supplemented with 10% fetal bovine serum. Cells were used at 80% confluence in 12-well plates. Cells were pretreated with various concentrations (100 nM -1 µM) of an Isoquinoline Derivative for 10 min. Peroxynitrite, a prototypical oxidant which induces DNA single strand breakage, was used to induce PARS activation. Peroxynitrite was diluted in phosphate buffered saline (PBS) (pH 11.0) and added to the cells in a bolus of 50 μl. Cells were then incubated for 20 min. […] After the 20 min incubation, the cells were spun, the medium was aspirated and the cells were resuspended in 0.5 ml assay buffer (56 mM HEPES pH 7.5, 28 mM KCl, 28 mM NaCl, 2 mM MgCl2, 0.01% w/v digitonin and 0.125 μM NAD^+ and 0.5 μCi/ml ^3H-NAD^+). Following an incubation in assay buffer, (10 min at 37° C.), PARS activity was measured as follows: 200 μl ice cold 50% w/v TCA was added and the samples were incubated for 4 hours at 4° C. Samples were then spun (10 min @ 10,000 g) and pellets washed twice with ice cold 5% w/v TCA and solubilized overnight in 250 μl 2% w/v SDS/0.1 N NaOH at 37° C. The contents of the tubes were added to 6.5 ml ScintiSafe Plus scintillation liquid (Fisher Scientific) and radioactivity was determined using a liquid scintillation counter (Wallac, Gaithersburg, Md.).

[2] = test system: ischemic and reperfused gut; test: Mouse model of ischemic and reperfused gut
Protocol: In order to substantiate the efficacy of the Isoquinoline Derivatives in ischemia-reperfusion conditions, the effect of an illustrative Isoquinoline Derivative in a mouse model of ischemic and reperfused gut was tested. […] Following the end of the reperfusion, gut permeability was measured with the FD4 method in evened gut sacks (Liaudet et al., Shock 2000, 14(2): 134-41).

[3] = test system: middle cerebral artery occlusion/reperfusion; test: Rat model of middle cerebral artery occlusion/reperfusion; assay type: in vivo; settings: 3 mg/kg/day in 3 divided i.p. doses; 2 h occlusion, 24 h reperfusion; vs vehicle-treated controls
Protocol: Occlusion lasted for 2 hours, followed by reperfusion for 24 hours. Infarct size was quantified with tetrazolium staining. […] There was an approximately 80% reduction in the degree of cortical necrosis and neuronal death in the animals administered with 8l (mesylate salt), when compared to vehicle-treated controls.

Balb/c mice = test: LPS (endotoxin) induced mortality; assay type: in vivo; settings: 3 mg/kg/day; 100 mg/kg LPS i.p.; over 24 h; untreated 50%
CLP induced shock = test: Cecal ligation and puncture (CLP) induced shock mortality; assay type: in vivo; settings: 3 mg/kg/day; over 24 h; untreated 100% death

`O=c1[nH]c2c(c3ccccc13)Cc1cc(S(=O)(=O)NCCCN3CCOCC3)ccc1-2` [Compound 8l, 9-[N-(3-[morpholino-4-yl]propyl)-aminosulphonyl]-5,6-dihydro-5-oxo-11H-indeno-[1,2c]isoquinoline] showed a Glucose [1] of 244 ± 21 mg/dL, a Cytotoxicity (thymocytes; 30 nM 8l (mesylate salt per title)) of 74% and a Cytotoxicity (thymocytes; 100 nM 8l (mesylate salt per title)) of 39%. For the same molecule, the Cytotoxicity (thymocytes; 300 nM 8l (mesylate salt per title)) was 2%, the Cytotoxicity (thymocytes; 1 μM 8l (mesylate salt per title)) was 0% and the Cytotoxicity (thymocytes; 3 μM 8l (mesylate salt per title)) was 0%.

In the case of `O=c1[nH]c2c(c3ccccc13)Cc1cc(S(=O)(=O)NCCN3CCOCC3)ccc1-2` [Compound 8j, 9-[N-(2-[morpholino-4-yl]ethyl)-aminosulphonyl]-5,6-dihydro-5-oxo-11H-indeno[1,2-c]isoquinoline], the TNF (TNF-alpha; 0.1 mg/kg i.p. pretreatment) is reported as 3831.6 ± 385.2, the TNF (TNF-alpha; 1.0 mg/kg i.p. pretreatment) is reported as 5038.8 ± 377.1 and the Glucose [1] is reported as 253 ± 24 mg/dL. The “% PARS inhibition at 100 nM” value (PARS; 100 nM) was 34% and the “% PARS inhibition at 300 nM” value (PARS; 300 nM) was 76%.

In the case of `O=c1[nH]c2c(c3ccccc13)Cc1cc(S(=O)(=O)NCCCN3CCOCC3)ccc1-2` [Compound 8l (mesylate salt), 9-[N-(3-[morpholino-4-yl]propyl)-aminosulphonyl]-5,6-dihydro-5-oxo-11H-indeno-[1,2c]isoquinoline], the “reduction of the increase in the permeability of the gut” value ([2]; 3 mg/kg i.v. 10 min prior to reperfusion, 45 min occlusion, 1 h reperfusion, FD4 method) is reported as “approximately 73%”, the mortality ([2]; gut ischemia-reperfusion, over 12 hours, untreated 80%) is reported as 15% and the “reduction in the degree of cortical necrosis and neuronal death” value [3] is reported as “approximately 80%”. For the same molecule, the endotoxin-induced mortality (Balb/c mice) was 10% and the “mortality (death) in CLP induced shock” value (CLP induced shock) was 60%.

Molecule `CCN(CC)CCN(CCN(CC)CC)S(=O)(=O)c1ccc2c(c1)=Cc1c3c(c(=O)[nH]c1=2)=CC=CC3` [Compound 8p, 9-[N,N-di-(2-[N,N-diethylamino]ethyl)-aminosulphonyl]-5,6-dihydro-5-oxo-1H-indeno-[1,2-c]isoquinoline] has a TNF (TNF-alpha; 0.1 mg/kg i.p. pretreatment) of 4470.0 ± 184.4, a TNF (TNF-alpha; 1.0 mg/kg i.p. pretreatment) of 5090.8 ± 203.7 and a Glucose [1] of 264 ± 24 mg/dL. For the same molecule, the inhibition at 0.1 µM (PARS; 100 nM) was 27% and the inhibition at 0.3 µM (PARS; 300 nM) was 45%.
